How the values were obtained:
[1] = Biliary collection of 75Se radioactivity after intravenous injection, bile-cannulated rabbit; type: in vivo
Description: A male rabbit (NZW×LOP; 4.8 kg) was anaesthetized with sodium pentobarbitone ("Sagatal"), intravenously injected. A tracheotomy was performed and into a jugular vein was inserted a cannula with a 3-way tap. The animal was ventilated by intermittent positive pressure and anaesthesia maintained by intravenous administration of pentobarbitone as required. A midline ventral incision was made in the abdominal wall and the liver reflected to reveal the gall bladder, cystic duct and the common bile duct. After ligation of the cystic duct the common bile duct was cannulated for the collection of bile.
After a period of stabilization 1 ml of a solution of 19-methyl-[^75 Se]selenocholesterol (0.01 mg; 12 mCi) in polysorbate/normal saline was injected via the jugular cannula. Bile was collected as a series of 15-minute samples in preweighed tubes. After collection each sample was weighed and counted for ^75 Se radioactivity. The flow of bile, initially at 3.4 ml/15 minutes, declined to 1.5 ml/15 minutes after 61/2 hours. During this period 56.65 g of bile was collected containing approximately 100 μCi of ^75 Se radioactivity (about 1 percent of the injected dose).

[2] = Intravenous administration to humans with the object of adrenal visualisation; type: in vivo, human
Text: It was surmised that 19-methyl-^75 Se selenocholesterol was being converted to analogues of bile salts in which a methylseleno group was attached to the C19 carbon atom.

[3] = Whole-body excretion studies in rats after oral administration (whole-body counts, bi-exponential fit); type: in vivo, rat; details: for b (amplitude of second component) / c (constant; percentage predicted as never being excreted) / x (rate constant of first component) / y (rate constant of second component): Retention(t)=ae^-xt+be^-yt+c; for a (amplitude of first component, Retention(t)=ae^-xt+be^-yt+c): whole-body retention as % of initial counts, 6-8 days
Description: Whole-body excretion studies in rats over a period of 8 days after oral administration of compounds i to viii indicate that excretion is delayed with respect to a non-absorbable radioactive maker, ^131 I-polyvinylpyrollidone.
For each of the eight compounds under investigation, approximately 10-15 μCi was administered via an intragastric tube to rats. Whole-body counts were determined immediately after administration and at intervals during the following 6-8 days. A whole-body standard permitted corrections for radioactive decay and variations in counter efficiency.
Whole-body retention is expressed as a percentage of the counts determined immediately after administration.
Retention (t)=ae^-xt +be^-yt +c (1)

[4] = Tissue distribution studies in rats after oral administration; type: in vivo, rat; details: for whole body retention by tissue distribution (dissection): at the end of 8 days
Description: The pattern of tissue distribution is similar for all the compounds. At 20 hours the ^75 Se radioactivity is largely confined to the liver, gut and faeces; apart from compounds iii and iv less than 5 percent of the radioactivity is distributed among other organs.

[5] = Clinical whole-body counting of 75Se retention after oral administration; type: in vivo, human; details: for Retention of Selenium-75 Radioactivity: oral approx. 1 μCi
Description: Approximately 1 μCi of compound ii was given orally as a drink in water to four adult volunteers, two of them being normal active adult males, 35-50 years of age, and two who had received a total ileal resection more than 10 years previously. All were on a normal diet. Se-ii was administered between 10.00 am and 12 noon. Body radioactivity was then measured in a whole-body counter immediately after administering the ^75 Se-ii and subsequently at 48 hours and 7 days.

[6] = Biliary excretion studies in rats, oral mixture of 75Se-seleno bile acid and 14C-cholic acid; type: in vivo, rat
Description: Measurement of the ratio of the ^14 C/^75 Se radioactivity collected in a 24 hour bile sample to the ^14 C/^75 Se radioactivity administered orally gives an indication of the efficiency of absorption of the seleno bile acid as compared to ^14 C-cholic acid. Ideally, when these absorptions are the same the ratio would be 1, but as the efficiency of the adsorption seleno bile acid diminishes the ratio increases.

[7] = at 20 hours, relative to the other compounds

Row | SMILES | b (amplitude of second component) [3] | c (constant; percentage predicted as never being excreted) [3] | x (rate constant of first component) [3] | y (rate constant of second component) [3] | a (amplitude of first component, Retention(t)=ae^-xt+be^-yt+c) [3] | other results
1 | C[75Se]C[C@]12CC[C@H](O)CC1=CC[C@@H]1[C@@H]2CC[C@]2(C)[C@@H]([C@H](C)CCCC(C)C)CC[C@@H]12 [19-methyl-[^75 Se]selenocholesterol] |  |  |  |  |  | 75Se radioactivity collected in bile (of injected dose) ([1]; i.v. via jugular cannula, bile collected 6 1/2 hours, 390 min): about 1%; 75Se radioactivity collected in bile ([1]; i.v., 12 mCi injected, 56.65 g bile over 6 1/2 hours): approximately 100 μCi; localisation of selenium-75 radioactivity [2]: concentrated in the enterohepatic system; metabolism compared with cholesterol [2]: appeared to parallel that of cholesterol
2 | C[C@H](C[75Se]CC(=O)O)[C@H]1CC[C@H]2[C@@H]3CC[C@@H]4C[C@H](O)CC[C@]4(C)[C@H]3C[C@H](O)[C@]12C [Compound ii, 3α,12α-dihydroxy-22-(carboxymethyl-[^75 Se]seleno)-23,24-bisnor-5β-cholane] | 27.6% | 3.36% | 2.29 day⁻¹ | 0.65 day⁻¹ | 190% | 75Se radioactivity in the faeces [4, 7]: a very much small percentage of ^75 Se radioactivity in the faeces; 75Se radioactivity in the small bowel [4, 7]: a correspondingly larger proportion in the small bowel; Retention of Selenium-75 Radioactivity ([5]; Ileal resection (3), 0 h): 100%; Retention of Selenium-75 Radioactivity ([5]; Ileal resection (3), 48 hrs.): 26%; Retention of Selenium-75 Radioactivity ([5]; Ileal resection (3), 7 days): 7.5%; Retention of Selenium-75 Radioactivity ([5]; Ileal resection (4), 0 h, patient on drugs to slow bowel transfer): 100%; Retention of Selenium-75 Radioactivity ([5]; Ileal resection (4), 48 hrs., patient on drugs to slow bowel transfer): 80%; Retention of Selenium-75 Radioactivity ([5]; Ileal resection (4), 7 days, patient on drugs to slow bowel transfer): 9.5%; Retention of Selenium-75 Radioactivity ([5]; Normal (1), 0 h): 100%; Retention of Selenium-75 Radioactivity ([5]; Normal (1), 48 hrs.): 80%; Retention of Selenium-75 Radioactivity ([5]; Normal (1), 7 days): 31%; Retention of Selenium-75 Radioactivity ([5]; Normal (2), 0 h): 100%; Retention of Selenium-75 Radioactivity ([5]; Normal (2), 48 hrs.): 100%; Retention of Selenium-75 Radioactivity ([5]; Normal (2), 7 days): 27%; rate of elimination from the body ([5]; humans who have suffered an ileal resection): this rate of elimination is increased; rate of elimination from the body ([5]; normal humans, compared with rats): considerably slower than it is for rats
3 | C[C@H](CC[75Se]CCC(=O)O)[C@H]1CC[C@H]2[C@@H]3[C@H](O)C[C@@H]4C[C@H](O)CC[C@]4(C)[C@H]3CC[C@]12C [iii, 3α,7α-dihydroxy-23-(β-carboxyethyl-[^75 Se]seleno)-24-nor-5β-cholane] | 37.5% | 4.0% | 2.31 day⁻¹ | 0.53 day⁻¹ | 170% | ratio of 14C/75Se radioactivity in 24 hour bile sample to 14C/75Se administered orally ([6]; 24 h bile, 14C-cholic acid internal marker, 1 = absorption same as cholic acid): 54; efficiency of absorption ([6]; compared to 14C-cholic acid): very much reduced absorption
4 | C[C@H](CC[75Se]CCC(=O)O)[C@H]1CC[C@H]2[C@@H]3[C@H](O)C[C@@H]4C[C@H](O)CC[C@]4(C)[C@H]3C[C@H](O)[C@]12C [iv, 3α,7α,12α-trihydroxy-23-(β-carboxyethyl-[^75 Se]seleno)-24-nor-5β-cholane] | 42.5% | 15.5% | 2.77 day⁻¹ | 0.66 day⁻¹ | 260% | whole body retention by tissue distribution (dissection) [4]: ~5.5%; whole body retention by tissue distribution (dissection) ([4]; listed as tri-hydroxy compound): approximately 5.5%
5 | CC([75Se]CC(=O)O)[C@H]1CC[C@H]2[C@@H]3[C@H](O)C[C@@H]4C[C@H](O)CC[C@]4(C)[C@H]3C[C@H](O)[C@]12C (stereo partly drawn) [v, 3α,7α,12α-trihydroxy-20-(carboxymethyl-[^75 Se]seleno)-5β-pregnane] | 16.5% | 0.8% | 2.52 day⁻¹ | 0.38 day⁻¹ | 98% | 
6 | CC([75Se]CC(=O)NCC(=O)O)[C@H]1CC[C@H]2[C@@H]3[C@H](O)C[C@@H]4C[C@H](O)CC[C@]4(C)[C@H]3C[C@H](O)[C@]12C (some centres unmarked) [vi, Glyco-22-[^75 Se]selenacholic acid] | 7.2% | 0.58% | 1.54 day⁻¹ | 0.54 day⁻¹ | 221% | 
7 | C[C@H](CCC[75Se]CC(=O)O)[C@H]1CC[C@H]2[C@@H]3CC[C@@H]4C[C@H](O)CC[C@]4(C)[C@H]3CC[C@]12C [vii, 3α-hydroxy-24-(carboxymethyl-[^75 Se]seleno)-5β-cholane] | 11.8% | 2.85% | 2.29 day⁻¹ | 0.44 day⁻¹ | 203% | 
8 | C[C@H](CC[123Te]CC(=O)O)[C@H]1CC[C@H]2[C@@H]3CC[C@@H]4C[C@H](O)CC[C@]4(C)[C@H]3C[C@H](O)[C@]12C [viii, 3α,12α-dihydroxy-23-(carboxymethyl-[^123m Te]telluro)-24-nor-5β-cholane] | 6.3% | 1.3% | 2.26 day⁻¹ | 0.43 day⁻¹ | 173% | 
